Data: ChEMBL document CHEMBL1157646, “Melanogenesis inhibitors from the desert plant Anastatica hierochuntica in B16 melanoma cells” (Bioorg Med Chem, 2010)
Calls of active or inactive are those of the source. The calls are words filed in the database; no cut-off is given here.

How the values were obtained:
cells [1] = settings: Mus musculus, B16-4A5, 72 h, read-out: INH
Description: Inhibition of theophylline-stimulated melanogenesis in mouse B16-4A5 cells at 10 uM after 72 hrs

cells [2] = settings: Mus musculus, B16-4A5, 72 h, read-out: INH; remark: listed apart in the source
Description: Inhibition of theophylline-stimulated melanogenesis in mouse B16-4A5 cells at 3 uM after 72 hrs

[3] = biological target: T1, Tyrosinase (Agaricus bisporus) (UniProt O42713); test: Inhibition of mushroom tyrosinase assessed as inhibition of melanin production from dopachrome by autoxidation at 100 uM
T1 sequence (whole entry): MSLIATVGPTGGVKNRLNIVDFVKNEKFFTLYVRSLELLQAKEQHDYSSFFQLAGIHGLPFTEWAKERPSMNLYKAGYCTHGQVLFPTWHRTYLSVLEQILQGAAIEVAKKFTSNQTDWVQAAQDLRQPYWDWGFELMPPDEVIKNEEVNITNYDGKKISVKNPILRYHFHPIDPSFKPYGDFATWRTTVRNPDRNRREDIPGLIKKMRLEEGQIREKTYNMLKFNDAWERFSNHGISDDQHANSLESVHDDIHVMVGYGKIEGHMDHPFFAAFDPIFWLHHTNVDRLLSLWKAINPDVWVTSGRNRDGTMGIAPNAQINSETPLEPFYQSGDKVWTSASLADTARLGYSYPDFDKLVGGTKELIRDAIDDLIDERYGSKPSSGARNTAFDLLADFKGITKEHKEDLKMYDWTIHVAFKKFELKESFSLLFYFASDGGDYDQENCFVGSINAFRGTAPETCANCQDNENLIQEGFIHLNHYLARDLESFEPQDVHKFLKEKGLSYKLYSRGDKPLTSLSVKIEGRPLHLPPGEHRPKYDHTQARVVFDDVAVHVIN

cells [4] = settings: Mus musculus, B16-4A5, 72 h, read-out: INH; remark: listed apart in the source
Description: Inhibition of theophylline-stimulated melanogenesis in mouse B16-4A5 cells at 30 uM after 72 hrs

cells [5] = settings: Mus musculus, B16-4A5, 72 h, read-out: INH; remark: listed apart in the source
Description: Inhibition of theophylline-stimulated melanogenesis in mouse B16-4A5 cells at 1 uM after 72 hrs

[6] = Toxicity in mouse B16-4A5 cells assessed as inhibition of cell proliferation at 30 uM in presence of 1 mM theophylline after 72 hrs by WST8 dye reduction assay; assay type: cell-based
[7] = Toxicity in mouse B16-4A5 cells assessed as inhibition of cell proliferation at 1 uM in presence of 1 mM theophylline after 72 hrs by WST8 dye reduction assay; assay type: cell-based
[8] = Toxicity in mouse B16-4A5 cells assessed as inhibition of cell proliferation at 10 uM in presence of 1 mM theophylline after 72 hrs by WST8 dye reduction assay; assay type: cell-based
[9] = Toxicity in mouse B16-4A5 cells assessed as inhibition of cell proliferation at 3 uM in presence of 1 mM theophylline after 72 hrs by WST8 dye reduction assay; assay type: cell-based
[10] = Toxicity in mouse B16-4A5 cells assessed as inhibition of cell proliferation in presence of 1 mM theophylline after 72 hrs by WST8 dye reduction assay; assay type: cell-based
[11] = biological target: T1, Tyrosinase (Agaricus bisporus); test: Inhibition of mushroom tyrosinase at 1 uM
[12] = biological target: T1, Tyrosinase (Agaricus bisporus); test: Inhibition of mushroom tyrosinase at 3 uM

Structure (SMILES) | inhibition at 10 µM (cells [1]) [%] | inhibition at 3 µM (cells [2]) [%] | inhibition [3] | inhibition at 30 µM (cells [4]) [%] | inhibition at 1 µM (cells [5]) [%] | inhibition at 72 h, 30 µM [6] [%] | inhibition at 72 h, 1 µM [7] [%] | inhibition at 72 h, 10 µM [8] [%] | inhibition at 72 h, 3 µM [9] [%] | IC50 at 72 h [10] [µM] | inhibition [11] [%] | inhibition [12] [%]
COc1ccc([C@@H]2Oc3c(O)cc(/C=C/C=O)cc3[C@H]2CO)cc1OC | 33.6 | 8.4 | inactive | 76.8 | 10.7 | < 8.8 | – | – | – | – | – | –
O=C1c2c(O)cc(O)cc2O[C@@H](c2ccc(O)c(O)c2)[C@H]1O [(+)-EPITAXIFOLIN] | 6.9 | 6.8 | – | 13.7 | 3.5 | < 8.8 | – | – | – | – | – | –
C[C@@H]1O[C@@H](OC[C@H]2O[C@@H](Oc3c(-c4ccc(O)c(O)c4)oc4cc(O)cc(O)c4c3=O)[C@H](O)[C@@H](O)[C@@H]2O)[C@H](O)[C@H](O)[C@H]1O [RUTIN] | 4.3 | 3.1 | – | 5.2 | 4.5 | < 8.8 | – | – | – | – | – | –
O=c1c(O)c(-c2ccc(O)cc2)oc2cc(O)cc(O)c12 [KAEMPFEROL] | 18.6 | 7.9 | inactive | 58.1 | -0.6 | 16.3 | 3 | 13 | 10.2 | – | – | –
O=C1c2c(O)cc(O)cc2O[C@H](c2ccc(O)cc2)[C@H]1O [DIHYDROKAEMPFEROL] | -5.2 | 14.4 | – | 7 | 6 | < 8.8 | – | – | – | – | – | –
O=C1C[C@@H](c2ccc(O)cc2)Oc2c1c(O)cc1oc3cc(O)c(O)cc3c21 [ANASTATIN B] | 19.5 | 10.1 | – | 40.3 | -1.1 | < 8.8 | – | – | – | – | – | –
O=C1C[C@@H](c2ccc(O)cc2)Oc2cc(O)cc(O)c21 [NARINGENIN] | 22.5 | 13.9 | – | 16.9 | 14.4 | < 8.8 | – | – | – | – | – | –
COc1cc(C=O)ccc1O [VANILLIN] | – | – | – | < 15.4 | – | < 8.8 | – | – | – | – | – | –
COC/C=C/c1cc(O)c2c(c1)[C@@H](CO)[C@H](c1ccc(O)c(OC)c1)O2 [HIEROCHIN A] | 32.5 | 8 | inactive | 51.8 | 1.9 | < 8.8 | – | – | – | – | – | –
COc1cc(C(=O)CO)ccc1O | – | – | – | < 15.4 | – | < 8.8 | – | – | – | – | – | –
COc1cc([C@H](O)[C@@H](CO)c2ccc(O)c(OC)c2)ccc1O (relative stereo) | – | – | – | < 15.4 | – | < 8.8 | – | – | – | – | – | –
COc1cc([C@@H]2Oc3c(O)cc([C@H]4Oc5cc(O)cc(O)c5C(=O)[C@@H]4O)cc3[C@H]2CO)ccc1O [SILICRISTIN A] | 3.8 | 1.3 | – | 17.4 | 4.1 | < 8.8 | – | – | – | – | – | –
COc1cc(C(C)=O)ccc1O [APOCYNIN] | 18.9 | 17.5 | – | 20.2 | 16.8 | < 8.8 | – | – | – | – | – | –
O=C(O)c1ccc(O)c(O)c1 [PROTOCATECHUIC ACID] | – | – | – | < 15.4 | – | < 8.8 | – | – | – | – | – | –
COc1cc([C@H]2Oc3c(OC)cc(/C=C/CO)cc3[C@@H]2CO)ccc1O | 18.6 | -5.4 | inactive | 72.7 | -1.6 | 23.3 | -2.7 | -1.6 | 0.3 | > 100 | – | –
COc1cc([C@H]2Oc3cc(O)cc(O)c3C(=O)[C@@H]2O)ccc1O | 10.6 | 8 | – | 16.2 | 9.8 | < 8.8 | – | – | – | – | – | –
O=C(O)c1ccc(O)cc1 [PARABEN] | – | – | – | < 15.4 | – | < 8.8 | – | – | – | – | – | –
COc1cc(C(=O)CCO)ccc1O | – | – | – | < 15.4 | – | < 8.8 | – | – | – | – | – | –

Structure (SMILES) | inhibition at 10 µM (cells [1]) [%] | inhibition at 3 µM (cells [2]) [%] | inhibition [3] | inhibition at 30 µM (cells [4]) [%] | inhibition at 1 µM (cells [5]) [%] | inhibition at 72 h, 30 µM [6] [%] | inhibition at 72 h, 1 µM [7] [%] | inhibition at 72 h, 10 µM [8] [%] | inhibition at 72 h, 3 µM [9] [%] | IC50 at 72 h [10] [µM] | inhibition [11] [%] | inhibition [12] [%]
COc1cc(/C=C/C=O)ccc1O [CONIFERYL ALDEHYDE] | 14 | 11.6 | – | 39.1 | 10.3 | 11.5 | -4.2 | -0.5 | -3.2 | – | 1.6 | 4.2
COc1cc([C@H]2Oc3c(OC)cc(/C=C/C=O)cc3[C@@H]2CO)ccc1O | 28.4 | 2.1 | inactive | 79.1 | -2.8 | 40.3 | 3.8 | 13.6 | 5.5 | > 100 | – | –
COc1cc(C(=O)[C@H](CO)c2ccc(O)c(OC)c2)ccc1O [(-)-EVOFOLIN B] | 16.4 | 15 | – | 23.5 | 18.2 | < 8.8 | – | – | – | – | – | –
COc1cc(C(=O)C(O)CO)ccc1O (single isomer, unassigned; (+)) | 24 | 18.1 | – | 25.8 | 16.5 | < 8.8 | – | – | – | – | – | –
O=C1C[C@@H](c2ccc(O)cc2)Oc2cc3oc4cc(O)c(O)cc4c3c(O)c21 [ANASTATIN A] | 35.9 | 14.9 | inactive | 65.1 | 7.1 | < 8.8 | – | – | – | – | 6.4 | 6.7
COc1cc([C@H]2Oc3c(O)cc([C@H]4Oc5cc(O)cc(O)c5C(=O)[C@@H]4O)cc3[C@@H]2CO)ccc1O [SILICRISTIN B] | 1.6 | -1.3 | – | 1.2 | 4.2 | < 8.8 | – | – | – | – | – | –
COc1cc(C[C@H]2CO[C@H](c3ccc(O)c(OC)c3)[C@H]2CO)ccc1O [LARICIRESINOL] | – | – | – | < 15.4 | – | < 8.8 | – | – | – | – | – | –
COc1cc(C(O)C(CO)Oc2ccc(/C=C/CO)cc2OC)ccc1O (centres undefined) | 24.5 | 11.7 | inactive | 52.9 | 8.8 | < 8.8 | – | – | – | – | – | –
O=C1c2c(O)cc(O)cc2O[C@H](c2ccc(O)c(O)c2)[C@H]1O [(+)-TAXIFOLIN] | 6.7 | 3.1 | – | 21.7 | 3.5 | < 8.8 | – | – | – | – | – | –
O=Cc1ccc(O)cc1 [4-HYDROXYBENZALDEHYDE] | – | – | – | < 15.4 | – | 17.6 | -8.4 | -21 | -13.6 | – | – | –
COc1cc([C@@H](O)[C@@H](CO)c2ccc(O)c(OC)c2)ccc1O (relative stereo) | 21.3 | 20.8 | – | 27.3 | 14.9 | < 8.8 | – | – | – | – | – | –
O=Cc1ccc(O)c(O)c1 [PROTOCATECHUALDEHYDE] | 40.4 | 13.8 | inactive | 57.9 | 8.5 | 11.4 | -4.7 | -3.7 | -4.7 | – | 3.1 | 2.3
COc1cc([C@@H]2Oc3c(O)cc(C=O)cc3[C@H]2CO)ccc1O [HIEROCHIN C] | 27.6 | 6.6 | – | 44.6 | -1 | < 8.8 | – | – | – | – | – | –
COc1ccc(C(=O)O)cc1 [p-ANISIC ACID] | – | – | – | < 15.4 | – | < 8.8 | – | – | – | – | – | –
COc1cc(C(O)C(CO)Oc2ccc(/C=C/C=O)cc2OC)ccc1O (centres undefined) | < 15.4 | – | – | – | – | 91.5 | 2.2 | 68.6 | 13.6 | 6.9 | – | –
COc1cc(/C=C/C(=O)O)ccc1O [FERULATE] | – | – | – | < 15.4 | – | < 8.8 | – | – | – | – | – | –
COc1ccc([C@H]2Oc3c(OC)cc(/C=C/CO)cc3[C@@H]2CO)cc1OC [Hierochin B] | 7.6 | 2.2 | – | 50.6 | -1.6 | 23.8 | 0.3 | 10.9 | 1.3 | > 100 | – | –
